Experimental data taken from PMC9741454, “Selective Structural Derivatization of Flavonoid Acetamides Significantly Impacts Their Bioavailability and Antioxidant Properties” (Molecules, 2022).
Several values for one entry are separate records, joined by “and”; a condition that tells them apart may be missing. Equal entries are not always repeated.

Legend:
[1] = DPPH free radical scavenging assay; conditions: relative IC50, 30 min in the dark, absorbance at 517 nm, methanolic DPPH
Protocol: The stock solutions of the flavonoid acetamide derivatives were prepared in dimethyl sulfoxide. A fresh batch of 50 µM DPPH radical solution was prepared in methanol. The DPPH free radical scavenging activities of the flavonoid acetamide derivatives were determined using our previously reported literature procedure.
Into an amber vial, 1.00 × 10^2 µL solution of the flavonoid acetamide derivative in dimethyl sulfoxide was added into a 3.00 × 10^3 µL of a fresh batch of methanolic DPPH solution. This reaction mixture was incubated, away from light, for half an hour. The absorbance of the resultant solution was read on a UV-Vis spectrophotometer, λmax = 517 nm. This experiment was done across several concentrations to obtain the concentration-based antioxidant activity data which was subsequently used to calculate the relative half-maximal inhibitory concentration (IC50) values.
Given the observed variation of the stability of the DPPH free radical across different solvent vehicles, the stability of the DPPH free radicals was established in both methanol and dimethyl sulfoxide solvents. The percentage DPPH free radical scavenging activity of the flavonoid acetamide derivatives was computed against dimethyl sulfoxide, as per Equation (3). (3) % DPPH RSA=Absorbance of control−Absorbance of sample /Absorbance of control×100
Absorbance control is the absorbance of the blank methanolic DPPH sample with DMSO. The absorbance values were obtained at λmax = 517 nm.
The % RSA obtained was plotted and used to obtain the relative half-maximal inhibitory concentration (IC50) values, which were double confirmed using verified online computational tools.
The 2,2-diphenyl-1-picrylhydrazyl (DPPH) assay was used to evaluate the free radical scavenging capacity of the flavonoid acetamide derivatives. This assay is based on the colorimetric quantification of the DPPH free radicals. The reaction of the DPPH radicals with an antioxidant compound results in the loss of the DPPH free radical properties. The loss of the DPPH free radical properties is identifiable through a color change; a discoloration marked by the formation of a yellow color from the initial violet color. Slight antioxidant activity may be visually imperceptible; such a change may still be monitored spectrophotometrically through UV-Vis analysis at λmax = 517 [40, 44, 45].
The ability of the flavonoid acetamide derivatives to scavenge the DPPH free radicals is influenced by the concentration of both the flavonoid acetamide derivative and the DPPH free radicals, the reaction time, and presence of light during the reaction. The reaction time was set at 30 min and the concentration of the DPPH free radicals was […]. The concentration of the flavonoid acetamide derivatives was varied and the experiment was carried out in the dark. The actual concentration of the DPPH free radical before the addition of the flavonoid acetamide derivative was used as the standard for the purposes of the estimation of the DPPH free radical scavenging effect. The decrease in the DPPH free radical concentration upon the addition of the flavonoid acetamide derivative was used to calculate the antioxidant activity of the flavonoid acetamide derivatives. Thus, the greater the decrease in the DPPH free radical concentration, the higher the antioxidant activity. The antioxidant activity was expressed as the % RSA. […]

[2] = In vitro bioavailability by dialysis tubing procedure (pepsin then pancreatin digestion); assay type: in vitro ADME; conditions: for % bioavailability after phase 1 (pepsin digestion) / % bioavailability after phase 2 (pancreatin digestion): in vitro, dialysis tubing, average of three trials ± SD; for % bioavailability after phase 1 (pepsin digestion): 2 h pepsin digestion, pH 1.0, 37 °C; for % bioavailability after phase 2 (pancreatin digestion): 4 h pancreatin digestion, pH 7.0, 37 °C; for Total in vitro bioavailability: sum of phase 1 and phase 2 % bioavailability; as to % bioavailability after phase 1 (pepsin digestion): tested at 69.8 µM
Protocol: The in vitro bioavailability studies of the flavonoid acetamide derivatives were done in simulated gastric and intestinal fluids using the dialysis tubing procedure, as previously reported. The procedure involves two consecutive digestion stages: phase 1, which is a 2-h pepsin-based digestion followed by phase 2, which is a 4-h pancreatin based digestion. This procedure was adopted from Chimento, Adele, et al. (2013) and Grande, Fedora, et al. (2016).
Phase 1: Pepsin digestion, 2 h
The flavonoid acetamide derivatives were dissolved in dimethyl sulfoxide (DMSO) to achieve a concentration of 1.00 × 10^−3 M. The porcine pepsin was prepared to achieve 2.40 × 10^4 U porcine pepsin per 1.00 × 10^−3 L of solution. The sodium cholate solution was prepared to attain a final concentration of 2.00 w/v% while hydrochloric acid was prepared at a concentration of 8.50 × 10^−1 N, for immediate use.
The pepsin digestion phase was completed in 120 min. Into an oven dried test tube, a 1.00 mL of the newly prepared porcine pepsin solution was added, followed by 300 µL of the flavonoid acetamide solution. These two solutions were mixed prior to the addition of 3.00 mL of a fresh batch of the sodium cholate solution. The resultant solution was appropriately mixed and transferred into a dialysis tubing, which was subsequently sealed on both ends. The dialysis tubing was immersed into a freshly prepared 0.85 N hydrochloric acid solution (pH 1.0). The flask and its contents were incubated in a shaking water bath at a regulated temperature of 37 ± 0.5 °C. After 120 min, 3.00 mL of the liquid in the flask was obtained for UV-Vis analysis. The dialysis tubing was carefully recovered and readied for the second stage of the experiment, phase 2. Each sample experiment was done in triplicates.
Phase 2: Pancreatin digestion, 4 h
The following solutions were prepared for immediate use: a solution containing 8.00 × 10^−1 N sodium bicarbonate with […] of porcine pancreatin per 1.00 mL of solution. The dialysis tubing recovered following the pepsin digestion was carefully opened on one end and for the addition of […] of esterase and 1.30 mL of the fresh batch of the NaHCO3 solution. These contents were appropriately mixed, and the dialysis tubing was suitably sealed and immersed in a flask with PBS buffer (at pH 7.0). The flask was incubated for 4 h, in a shaking water bath at a regulated temperature of 37 ± 0.5 °C. At the end of the experiment, a 3.00 mL sample of the liquid in the flask was obtained for UV-Vis analysis. All sample experiments in this phase were done in triplicates.
The calibration curve for each flavonoid acetamide derivative was prepared at both pH 1.0 and pH 7.0. The triplicate samples obtained from both phase 1 and phase 2 of the digestions were characterized using UV-Vis; the data obtained was applied to the equations obtained from the calibration curves to calculate the amount of the flavonoid acetamide derivatives in the recovered samples. The percentage (%) of the recovered flavonoid acetamide derivative for each sample after both pepsin digestion (phase 1) and pancreatin digestion (phase 2) was calculated relative to the total flavonoid content used. Thus, the (%) bioavailability was determined from Equation (1) below. (1) % Bioavailability=Recovered Content/Total Content×100
The total in vitro bioavailability was defined as the sum of the % bioavailability after phase 1 and % bioavailability after phase 2 of the digestion, as shown in Equation (2). The final reported in vitro bioavailability value was the average of the three trials ± the standard deviation. (2) Total Bioavailability=phase 1 bioavailability+phase 2 bioavailability
The bioavailability of the flavonoid acetamides was determined using our previously reported in vitro dialysis tubing procedure. […]

IC50 [1] [µM] | % bioavailability after phase 1 (pepsin digestion) [2] | % bioavailability after phase 2 (pancreatin digestion) [2] | Total in vitro bioavailability [2] | Structure (SMILES)
31.5 | 6.70% and 6.70 ± 0.03% | 9.26% and 9.26 ± 0.05% | 15.97% and 15.97 ± 0.04% | NC(=O)COc1cc(O)c2c(=O)c(OCC(N)=O)c(-c3ccc(OCC(N)=O)c(OCC(N)=O)c3)oc2c1 [Compound 4, 2,2′-((4-(3,7-bis(2-amino-2-oxoethoxy)-5-hydroxy-4-oxo-4H-chromen-2-yl)-1,2-phenylene)bis(oxy))diacetamide]
47.1 | 12.51% and 12.51 ± 0.02% | 18.01% and 18.01 ± 0.26% | 30.51% and 30.51 ± 0.27% | NC(=O)COc1cc(O)c2c(=O)cc(-c3ccc(OCC(N)=O)c(OCC(N)=O)c3)oc2c1 [Compound 15, 2,2′-((4-(7-(2-amino-2-oxoethoxy)-5-hydroxy-4-oxo-4H-chromen-2-yl)-1,2-phenylene)bis(oxy))diacetamide]
59.2 | 16.11% and 16.11 ± 0.11% | 22.01% and 22.01 ± 0.21% | 38.12 ± 0.16% and 38.12% | NC(=O)COc1cc(OCC(N)=O)c2c(=O)c(OCC(N)=O)c(-c3ccc4c(c3)OCCO4)oc2c1 [Compound 7, 2,2′,2″-((2-(2,3-dihydrobenzo[b][1,4]dioxin-6-yl)-4-oxo-4H-chromene-3,5,7-triyl)tris(oxy))triacetamide]
93.7 | 9.98% and 9.98 ± 0.10% | 9.30% and 9.30 ± 0.09% | 19.28% and 19.28 ± 0.19% | NC(=O)COc1ccc(-c2cc(=O)c3c(O)cc(OCC(N)=O)cc3o2)cc1 [Compound 11, 2-(4-(7-(2-amino-2-oxoethoxy)-5-hydroxy-4-oxo-4H-chromen-2-yl)phenoxy)acetamide]
198 | 11.52% and 11.52 ± 0.02% | 13.14% and 13.14 ± 0.01% | 24.66% and 24.66 ± 0.01% | CCOC(=O)COc1cc(OCC(N)=O)cc2oc(-c3ccc(OCC(N)=O)c(OCC(N)=O)c3)c(OCC(N)=O)c(=O)c12 [Compound 5, ethyl 2-((3,7-bis(2-amino-2-oxoethoxy)-2-(3,4-bis(2-amino-2-oxoethoxy)phenyl)-4-oxo-4H-chromen-5-yl)oxy)acetate]
